The results in this text go back to US11840686B2, “Modulation of prekallikrein (PKK) expression” (Ionis Pharmaceuticals, Inc., priority 2013, dated 2023).

Series [1] concerns PKK mRNA. The series can be described thus: PKK mRNA in liver of mice treated with ISIS 461756 (Example 18). The format is in vivo, mouse. The procedure:
Vascular permeability induced by ISIS 461756, an antisense oligonucleotide which targets murine C1 inhibitor mRNA, increases vascular permeability in mice and replicates the pathology of hereditary angioedema. The effect of ISIS 482584 on this model was evaluated.
One group of 8 mice was treated with 40 mg/kg ISIS 482584 administered subcutaneously twice a week for 3 weeks (weekly dose of 80 mg/kg). A second group of 8 mice was treated with 40 mg/kg of the control oligonucleotide, ISIS 141923, administered subcutaneously twice a week for 3 weeks (weekly dose of 80 mg/kg). A third group of 8 mice was treated with PBS administered subcutaneously twice a week for 3 weeks. On day 14, all the groups were treated with 12.5 mg/kg ISIS 461756 administered subcutaneously twice a week for 3 weeks (weekly dose of 25 mg/kg). A control group of mice was treated with PBS administered subcutaneously twice a week for 3 weeks but was not administered ISIS 461756.
At the end of the treatment period, all the groups were injected with 30 mg/kg of Evans Blue solution into the tail vein. The mice were sacrificed 30 min after the Evans Blue solution administration and colons, feet, ears, and intestines were harvested. The liver was also harvested for RNA analysis.
RNA was isolated from the liver for RT-PCR analysis of C1-INH and PKK mRNAs. The primer probe set for C1-INH is RTS3218 (forward sequence […], designated herein as SEQ ID NO: 2234; reverse sequence […], designated herein as SEQ ID NO: 2235; probe sequence […], designated herein as SEQ ID NO: 2236). The primer probe set for PKK is RTS3287 (forward sequence […], designated herein as SEQ ID NO: 2237; reverse sequence […], designated herein as SEQ ID NO: 2238; probe sequence […], designated herein as SEQ ID NO: 2239). The results are presented in Table 79 as percent inhibition compared to the PBS control not treated with ISIS 461756.

The test system of series [2] is Factor 12. In words: Factor 12 activation in mouse plasma, Spectrozyme FXIIa amidolytic assay (Example 17). The format is in vivo. As to conditions: for % F12 activation compared to the PBS control: 3 weeks, mouse plasma. The method, then:
The effect of antisense inhibition of PKK mRNA on Factor 12 protein activation was evaluated.
Group 1 consisted of 8 mice and was treated with PBS administered subcutaneously twice a week for 3 weeks. No other treatment was administered to Group 1 which served as a control group to measure Factor 12 activation.
Groups 2, 3, 4, 5, and 6 consisted of 8 mice each and were treated with 2.5 mg/kg, 5 mg/kg, 10 mg/kg, 20 mg/kg, or 40 mg/kg (corresponding to 5 mg/kg, 10 mg/kg, 20 mg/kg, 40 mg/kg, or 80 mg/kg per week), respectively of ISIS 482584 administered subcutaneously twice a week for 3 weeks. Groups 2-6 served as the treatment groups for measuring the effect of ISIS 482584 on Factor 12 activation.
At the end of the treatment period, plasma was harvested from the mice for the Spectrozyme® Factor 12a based amidolytic assay for Factor 12 in plasma.
Plasma (5 μL) was added to 85 μL of PBS with 1 μg/ml dextran sulfate (500 kDa) in a 96 well polypropelene microplate and the solution was incubated for 5 minutes at room temperature. Spectrozyme® FXIIa (10 μL of a 2 mM solution) and 0.2 mM KALLISTOP™ solution was added and the absorbance kinetic was measured at 405 nm. Factor 12 activation was measured in the linear phase of absorbance accumulation. The results are presented in Table 78 as a percentage of Factor 12 activation measured in the PBS control sample.

In series [3] the test system is PKK mRNA. The series can be described thus: PKK mRNA in cynomolgus monkey liver (Example 8). In kind it is in vivo. As to conditions: primates, Example 8. The essentials: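 Cynomolgus monkeys were dosed with human antisense oligonucleotides cross-reactive with the rhesus sequence. Liver RNA taken on day 87 or 88, 48 h after the last dose, was assayed by real-time PCR (primer probe set RTS3455) and normalized to cyclophilin. Values are percent PKK mRNA inhibition versus PBS control.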

Strand notation (5' to 3'): a small letter for the sugar, then the base; units joined by * are phosphorothioate-linked, units joined directly phosphodiester-linked; [ ] holds rarer units or linkages, { } end groups; capitals alone tell only the bases. e = 2'-O-(2-methoxyethyl) (MOE); [5mC] = 5-methylcytosine; d = 2'-deoxy (DNA)

Take “ISIS 482584: 5-10-5 MOE gapmer targeting murine PKK, GGCATATTGGTTTTTGGAAT; SEQ ID NO: 2244 (antisense eG*eG*e[5mC]*eA*eT*dA*dT*dT*dG*dG*dT*dT*dT*dT*dT*eG*eG*eA*eA*eT)”: the “Percent inhibition of PKK mRNA expression compared to the untreated PBS control” value in series [1] (liver, all groups ISIS 461756 25 mg/kg/wk, pretreatment PBS or oligonucleotide 80 mg/kg/wk sc 3 weeks) is reported as 78%. The “PKK expression” value in series [1] (mouse liver, 40 mg/kg s.c. twice a week for 3 weeks) is given as “significantly reduced PKK expression”. Also, the “% F12 activation compared to the PBS control” value in series [2] (5 mg/kg/wk sc) is 82%; in series [2] (10 mg/kg/wk sc) it was 63%; in series [2] (20 mg/kg/wk sc), 47%; in series [2] (40 mg/kg/wk sc) it was 24%; in series [2] (80 mg/kg/wk sc), 14%. The “activation of Factor 12” value in series [2] (mouse plasma after 3 weeks s.c. treatment) is given as “decreased activation of Factor 12”.
As to “Tes Ges mCes Aes Aes Gds Tds mCds Tds mCds Tds Tds Gds Gds mCds Aes Aes Aes mCes Ae [ISIS 546254]”, the “inhibiting PKK mRNA and protein expression in primates” value in series [3] was “effective for inhibiting PKK mRNA and protein expression”.
